Measured values from patent US11053226B2, “KRAS G12C inhibitors and methods of using the same” (Amgen Inc., priority 2018, dated 2021).
Where two headings read alike, the source gives them in different places.

How the values were obtained:
[1] = system: Phosphorylation of ERK1/2 in A549 cells; test: Phospho-ERK1/2 MSD Assay (A549); format: cell-based; settings: Homo sapiens
[2] = system: Phosphorylation of ERK1/2 in MIA PaCa-2 cells; test: Phospho-ERK1/2 MSD Assay; format: cell-based; settings: Homo sapiens, MiaPaCa-2 cells
[3] = target: GDP-bound KRAS protein (aa 1-169), containing both G12C and C118A amino acid substitutions (Homo sapiens (Human), UniProt P01116, C118A/G12C); test: Coupled Nucleotide Exchange Assay; format: biochemical
Sequence of GDP-bound KRAS protein (aa 1-169), containing both G12C and C118A amino acid substitutions (P01116 other isoform, or with tags, fused parts or gaps G12C/C118A): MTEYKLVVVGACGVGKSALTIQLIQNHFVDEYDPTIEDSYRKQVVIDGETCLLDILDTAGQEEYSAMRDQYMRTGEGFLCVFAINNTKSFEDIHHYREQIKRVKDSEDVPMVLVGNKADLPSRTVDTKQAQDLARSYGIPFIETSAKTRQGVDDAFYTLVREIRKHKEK
Description: For compounds in Table 9, the following assay conditions were employed:
Coupled Nucleotide Exchange Assay:
The assay plates were then read on a PerkinElmer EnVision Multilabel Reader, using AlphaScreen® technology, and data were analyzed using a 4-parameter logistic model to calculate IC50 values.

[4] = read-out: pERK IC50 (4 h), 4 h compound treatment
[5] = MIA PaCa-2, read-out: pERK IC50 (4 h), 4 h compound treatment
[6] = read-out: Coupled Exchange IC50 (2 h), 2 h compound pre-incubation
[7] = A549, 4 h, read-out: pERK IC50 (4 h, A549), 4 h compound treatment
[8] = MIA PaCa-2, 4 h, read-out: pERK IC50 (4 h, MiaPaCa-2), 4 h compound treatment
[9] = read-out: Coupled Exchange IC50 (20 h), 20 h compound pre-incubation
[10] = read-out: Coupled Exchange IC50 (5 min), 5 min compound pre-incubation

Structure (SMILES)	IC50 [1, 4] [µM]	IC50 [2, 5] [µM]	IC50 [3, 6] [nM]	IC50 [1, 7] [µM]	IC50 [2, 8] [µM]	IC50 [3, 9] [nM]	IC50 [3, 10] [nM]	Coupled Exchange IC50 (5 min) ([3]; 5 min compound pre-incubation) [µM]	Coupled Exchange IC50 (2 h) ([3]; 2 h compound pre-incubation) [µM]
C=CC(=O)N1CC(NC(=O)Cn2c(C)c(-c3cccc4nc(C)ccc34)c3cc(Cl)ccc32)C1 [Example 101]	56.8	20.3	1110						
C=CC(=O)N1CC(NC(=O)Cn2c(C)c(C(=O)N3CCc4c(C)cccc4C3)c3cc(Br)ccc32)C1 [Example 25]			540	> 100	2.47	90			
C=CC(=O)N1CC(NC(=O)Cn2cc(-c3ccccc3-c3ccccc3)c3cc(Br)cc(C)c32)C1 [Example 62]	> 33.3	7.06	1180			250			
C=CC(=O)N1CC(NC(=O)Cn2cc(CN3CCc4ccccc4C3)c3cc(Br)ccc32)C1 [Example 145]	50.9	46.9	5700			1120			
C=CC(=O)N1CC(NC(=O)Cn2c(C)c(C(=O)N3CCc4c(O)cccc4C3)c3cc(Br)ccc32)C1 [Example 58]			280	> 33.3	6.81	110			
C=CC(=O)N1CC(NC(=O)Cn2cc(I)c3cc([N+](=O)[O-])ccc32)C1 [Example 128]	> 100	35.6	7240			1180	> 250000		
C=CC(=O)N1CC(NC(=O)Cn2c(C(=O)NCc3ccccc3CN(C)C)cc3cc(Br)ccc32)C1 [Example 88]	> 100	14.9	3260			720			
C=CC(=O)N1CC(NC(=O)Cn2cc(-c3ccccc3C)c3cc(Cl)ccc32)C1 [Example 78]	> 100	11.7	5490			1200	33100		
C=CC(=O)N1CC(NC(=O)Cn2c(C)c(-c3ccccc3C)c3cc(Cl)ccc32)C1 [Example 121]	> 100	31.2	1570			420	12400		
C=CC(=O)N1CC(N(C)C(=O)Cn2c(C)c(C(=O)N3CCN(c4ccc(Br)cn4)CC3)c3cc(Br)ccc32)C1 [Example 21]			490	27.3	1.95	100			
C=CC(=O)N1CC(N(C)C(=O)Cn2c(C3CC3)c(C(=O)N3CCN(c4ccc(C#N)cn4)CC3)c3cc(Cl)cc(C)c32)C1 [Example 19]			610	> 100	1.87				
C=CC(=O)N1CC(NC(=O)Cn2cc(C(=O)NCCC(=O)Nc3ccccc3CC)c3cc(Br)cc(C)c32)C1 [Example 177]			430	> 100	> 100	170			
C=CC(=O)N1CC(N(C)C(=O)Cn2c(C)c(C(=O)N3CCN(c4ccc(C#N)cn4)C[C@@H]3C)c3cc(Br)ccc32)C1 [Example 52]			530	> 100	4.83				
C=CC(=O)N1CC(N(C)C(=O)Cn2c(C)c(C(=O)N3CCN(c4ccc(C#N)cn4)CC3)c3cc(Br)ccc32)C1 [Example 27]			770	> 100	2.5	240			
C=CC(=O)N1CC(NC(=O)Cn2c(C)c(C(=O)N3[C@H](C)c4ccc(F)cc4C[C@@H]3C)c3cc(Br)cc(C)c32)C1 [Example 9]			200	41.6	1.56				
C=CC(=O)N1CC(NC(=O)Cn2cc(C(=O)NCC(CC)Oc3cccc(Cl)c3)c3cc(Br)ccc32)C1 (stereo not drawn) [Example 152]			1800	68.8	51.6	470			
C=CC(=O)N1CC(NC(=O)Cn2cc(I)c3ccc(Br)cc32)C1 [Example 70]	> 100	9.94	8960			1700			
C=CC(=O)N1CC(NC(=O)Cn2cc(C(=O)NCCc3nc(C)c(C)s3)c3cc(Br)ccc32)C1 [Example 176]			2800	> 100	> 100	600			

Structure (SMILES)	IC50 [1, 4] [µM]	IC50 [2, 5] [µM]	IC50 [3, 6] [nM]	IC50 [1, 7] [µM]	IC50 [2, 8] [µM]	IC50 [3, 9] [nM]	IC50 [3, 10] [nM]	Coupled Exchange IC50 (5 min) ([3]; 5 min compound pre-incubation) [µM]	Coupled Exchange IC50 (2 h) ([3]; 2 h compound pre-incubation) [µM]
C=CC(=O)N1CC(NC(=O)Cn2cc(I)c3cc(Br)cc(CC)c32)C1 [Example 87]	> 100	14.7	4810			910			
C=CC(=O)N1CC(NC(=O)Cn2c(C)c(C(=O)N3CCc4ccccc4C3(C)C)c3cc(Br)cc(C)c32)C1 [Example 35]			290	55.7	3.06				
C=CC(=O)N1CC(NC(=O)Cn2cc(-c3ccccc3C(C)C)c3cc(Br)cc(C)c32)C1 [Example 119]	> 100	30.6	1710			390			
C=CC(=O)N1CC(NC(=O)Cn2c(CC)c(C(=O)N3CCN(c4ccc(C#N)cn4)C[C@H]3C)c3cc(Cl)cc(C)c32)C1 [Example 1-3, 2-(5-Chloro-3-(((2R)-4-(5-cyano-2-pyridinyl)-2-methyl-1-piperazinyl)carbonyl)-2-ethyl-7-methyl-1H-indol-1-yl)-N-(1-(2-propenoyl)-3-azetidinyl)acetamide]			150	> 100	1.31				
C=CC(=O)N1CC(NC(=O)Cn2c3ccc(Br)cc3c3ccc(Oc4cccnc4)nc32)C1 [Example 55]	> 100	5.93	950			230			
C=CC(=O)N1CC(NC(=O)Cn2cc(C(=O)N3CCc4c(cccc4OC)C3)c3cc(Br)ccc32)C1 [Example 76]			640	> 100	11.4	170			
C=CC(=O)N1CC(NC(=O)Cn2c3c(c4cc(Br)ccc42)CCCCC3)C1 [Example 102]	> 100	21.2	4900			900			
C=CC(=O)N1CC(N(C)C(=O)Cn2c(C)c(C(=O)N3CCc4c(cccc4OC)C3)c3cc(Cl)ccc32)C1 [Example 33]			210	> 100	2.8	130			
C=CC(=O)N1CC(NC(=O)Cn2cc(I)c3cc(Br)c(C)cc32)C1 [Example 95]	> 100	16.7	5790			1090			
C=CC(=O)N1CC(NC(=O)Cn2cc(C(=O)N3CCc4ccc(C)cc4C3)c3cc(Br)ccc32)C1 [Example 122]			690	> 100	31.4	170			
C=CC(=O)N1CC(NC(=O)Cn2c(C3CC3)c(C(=O)N3CCc4c(cccc4OC)C3)c3cc(Br)ccc32)C1 [Example 3-2, 2-(5-Bromo-2-cyclopropyl-3-((5-methoxy-3,4-dihydro-2(1H)-isoquinolinyl)carbonyl)-1H-indol-1-yl)-N-(1-(2-propenoyl)-3-azetidinyl)acetamide]			140	52.6	0.6				
C=CC(=O)N1CC(N(C)C(=O)Cn2c(CC)c(C(=O)N3CCN(c4ccc(C#N)cn4)C[C@H]3C)c3cc(Cl)cc(C)c32)C1 [Example 4-6, 2-(5-Chloro-3-(((2R)-4-(5-cyano-2-pyridinyl)-2-methyl-1-piperazinyl)carbonyl)-2-ethyl-7-methyl-1H-indol-1-yl)-N-methyl-N-(1-(2-propenoyl)-3-azetidinyl)acetamide]			130	86.2	0.73				
C=CC(=O)N1CC(N(C)C(=O)Cn2c(C3CC3)c(C(=O)N3CCc4c(cccc4OC)C3)c3cc(Cl)cc(C)c32)C1 [Example 4-3, 2-(5-Chloro-2-cyclopropyl-3-((5-methoxy-3,4-dihydro-2(1H)-isoquinolinyl)carbonyl)-7-methyl-1H-indol-1-yl)-N-methyl-N-(1-(2-propenoyl)-3-azetidinyl)acetamide]			120	74.1	0.15				
C=CC(=O)N1CC(NC(=O)Cn2c(C)c(-c3ccccc3OC)c3cc(Cl)ccc32)C1 [Example 125]	> 100	33.6	2750						
C=CC(=O)N1CC(NC(=O)Cn2c(CC)c(C(=O)N3CCc4c(ccnc4OC)C3)c3cc(Cl)cc(C)c32)C1 [Example 1-1, 2-(5-Chloro-2-ethyl-3-((5-methoxy-3,4-dihydro-2,6-naphthyridin-2(1H)-yl)carbonyl)-7-methyl-1H-indol-1-yl)-N-(1-(2-propenoyl)-3-azetidinyl)acetamide]				> 100	0.09			0.20	0.07
C=CC(=O)N1CC(NC(=O)Cn2c(C)c(C(=O)N3CCc4c(cccc4OC)C3)c3cc(Cl)ccc32)C1 [Example 41]			370	> 100	3.55	120			
C=CC(=O)N1CC(N(C)C(=O)Cn2c(CC)c(C(=O)N3CCc4c(cccc4OC)C3)c3cc(Cl)cc(C)c32)C1 [Example 4-2, 2-(5-Chloro-2-ethyl-3-((5-methoxy-3,4-dihydro-2(1H)-isoquinolinyl)carbonyl)-7-methyl-1H-indol-1-yl)-N-methyl-N-(1-(2-propenoyl)-3-azetidinyl)acetamide]			150	> 100	0.21				
